Measurements taken from ChEMBL document CHEMBL1201862, “PubChem BioAssay data set” (2004).
Active and inactive are the calls of the source.

How the values were obtained:
Cytochrome P450 2C19 = Cytochrome P450 2C19 (Homo sapiens, UniProt P33261); assay: Cytochrome panel assay with activity outcomes. Panel member name: p450-cyp2c19 Compounds with AC50 equal or less than 10 uM are considered active; type: functional
Cytochrome P450 2C9 = Cytochrome P450 2C9 (Homo sapiens, UniProt P11712)
[1] = biological target: FAD-linked sulfhydryl oxidase ALR (Homo sapiens, UniProt P55789); assay: ALR-catalysed DTT oxidation blockers – biochemical, H2O2 detection, luminescence, cherry-pick, dose response (AID 493248)
Chain of FAD-linked sulfhydryl oxidase ALR (P55789 whole entry): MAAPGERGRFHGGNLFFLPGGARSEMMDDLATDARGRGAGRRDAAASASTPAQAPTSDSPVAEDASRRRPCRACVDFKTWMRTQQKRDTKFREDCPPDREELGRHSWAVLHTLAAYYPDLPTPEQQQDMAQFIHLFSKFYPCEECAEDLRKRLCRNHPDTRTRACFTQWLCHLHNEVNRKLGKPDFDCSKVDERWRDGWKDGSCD

cells = type: functional
[2] = biological target: Luciferin 4-monooxygenase (Photinus pyralis, UniProt P08659); assay: inhibition of purified Photinus pyralis luciferase – biochemical, luminescence, dose response (AID 1891)
Chain of Luciferin 4-monooxygenase (P08659 whole entry): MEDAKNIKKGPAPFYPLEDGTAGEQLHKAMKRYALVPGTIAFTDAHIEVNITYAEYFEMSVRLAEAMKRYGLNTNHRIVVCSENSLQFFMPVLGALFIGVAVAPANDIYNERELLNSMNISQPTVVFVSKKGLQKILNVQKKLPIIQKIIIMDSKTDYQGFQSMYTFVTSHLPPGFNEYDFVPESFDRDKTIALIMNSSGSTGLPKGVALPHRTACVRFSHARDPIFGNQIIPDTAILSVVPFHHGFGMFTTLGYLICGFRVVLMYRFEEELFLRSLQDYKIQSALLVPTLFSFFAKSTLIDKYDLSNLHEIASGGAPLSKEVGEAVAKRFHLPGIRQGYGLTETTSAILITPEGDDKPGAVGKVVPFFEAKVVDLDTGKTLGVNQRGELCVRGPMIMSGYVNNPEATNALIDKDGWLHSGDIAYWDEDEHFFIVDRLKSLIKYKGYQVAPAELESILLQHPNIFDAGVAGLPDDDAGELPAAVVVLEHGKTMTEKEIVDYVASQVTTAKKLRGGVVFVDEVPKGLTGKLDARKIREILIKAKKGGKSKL

[3] = Luminescence Cell-Based Dose Confirmation HTS to Identify Inhibitors of Platelet Dense Granule Release. [Related pubchem assays: 1663 (Primary HTS), 1678 (Summary of Project)]; type: functional
[4] = biological target: T1, Calpain-2 catalytic subunit (Sus scrofa, UniProt P43367); assay: m-calpain protease blockers, concentration series – biochemical, fluorogenic peptide substrate, dose response (AID 1420); type: functional
T1 sequence (P43367 whole entry): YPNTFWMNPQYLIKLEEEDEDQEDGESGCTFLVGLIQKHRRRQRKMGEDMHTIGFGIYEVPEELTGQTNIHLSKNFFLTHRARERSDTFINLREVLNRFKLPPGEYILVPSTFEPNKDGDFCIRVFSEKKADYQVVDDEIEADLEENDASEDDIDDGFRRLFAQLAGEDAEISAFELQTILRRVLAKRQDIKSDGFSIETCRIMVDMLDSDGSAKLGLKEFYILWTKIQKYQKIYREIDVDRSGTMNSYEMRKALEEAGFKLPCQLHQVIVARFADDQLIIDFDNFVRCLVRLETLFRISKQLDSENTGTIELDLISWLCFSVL

[5] = Luminescence Cell-Based Dose Retest to Confirm Inhibitors of Cancer Stem Cells. [Related pubchem assays (depositor defined):AID2717, AID2721]; type: functional; details: Homo sapiens
Nonstructural protein 1 = Nonstructural protein 1 (Influenza A virus, UniProt Q194T2); type: functional, Influenza A virus (A/California/07/2009(H1N1))
Chain of Nonstructural protein 1 (Q194T2 whole entry): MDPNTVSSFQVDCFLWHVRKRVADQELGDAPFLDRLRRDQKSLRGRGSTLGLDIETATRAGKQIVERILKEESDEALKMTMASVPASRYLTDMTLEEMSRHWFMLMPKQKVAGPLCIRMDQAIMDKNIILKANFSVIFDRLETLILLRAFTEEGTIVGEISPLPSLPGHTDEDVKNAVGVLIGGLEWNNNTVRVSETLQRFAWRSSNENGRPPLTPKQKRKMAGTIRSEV

Cytochrome P450 1A2 = biological target: T2, Cytochrome P450 1A2 (Homo sapiens, UniProt P05177);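 note: PubChem cytochrome P450 panel assay, CYP1A2 panel member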
T2 sequence (P05177 whole entry): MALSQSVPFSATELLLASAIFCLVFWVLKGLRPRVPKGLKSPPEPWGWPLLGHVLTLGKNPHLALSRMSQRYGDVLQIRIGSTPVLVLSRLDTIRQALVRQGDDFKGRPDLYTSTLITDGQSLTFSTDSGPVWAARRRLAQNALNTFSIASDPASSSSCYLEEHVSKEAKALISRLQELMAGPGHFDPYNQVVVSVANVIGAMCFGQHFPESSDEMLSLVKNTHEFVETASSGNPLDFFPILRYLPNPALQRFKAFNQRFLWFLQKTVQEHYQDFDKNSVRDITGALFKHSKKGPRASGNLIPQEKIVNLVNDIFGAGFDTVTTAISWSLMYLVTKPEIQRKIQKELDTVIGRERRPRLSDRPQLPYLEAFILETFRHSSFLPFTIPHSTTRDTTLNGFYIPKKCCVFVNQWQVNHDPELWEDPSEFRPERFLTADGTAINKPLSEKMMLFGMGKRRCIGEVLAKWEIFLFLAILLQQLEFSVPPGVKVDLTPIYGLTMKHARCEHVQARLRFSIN

[6] = biological target: T3, Rac GTPase-activating protein 1 (Homo sapiens, UniProt Q9H0H5); assay: blockers of MgcRacGAP-driven Rac1 GTP hydrolysis – biochemical, ADP Hunter fluorescence, primary and confirmatory, confirmation (AID 624330); type: functional
T3 sequence (Q9H0H5 whole entry): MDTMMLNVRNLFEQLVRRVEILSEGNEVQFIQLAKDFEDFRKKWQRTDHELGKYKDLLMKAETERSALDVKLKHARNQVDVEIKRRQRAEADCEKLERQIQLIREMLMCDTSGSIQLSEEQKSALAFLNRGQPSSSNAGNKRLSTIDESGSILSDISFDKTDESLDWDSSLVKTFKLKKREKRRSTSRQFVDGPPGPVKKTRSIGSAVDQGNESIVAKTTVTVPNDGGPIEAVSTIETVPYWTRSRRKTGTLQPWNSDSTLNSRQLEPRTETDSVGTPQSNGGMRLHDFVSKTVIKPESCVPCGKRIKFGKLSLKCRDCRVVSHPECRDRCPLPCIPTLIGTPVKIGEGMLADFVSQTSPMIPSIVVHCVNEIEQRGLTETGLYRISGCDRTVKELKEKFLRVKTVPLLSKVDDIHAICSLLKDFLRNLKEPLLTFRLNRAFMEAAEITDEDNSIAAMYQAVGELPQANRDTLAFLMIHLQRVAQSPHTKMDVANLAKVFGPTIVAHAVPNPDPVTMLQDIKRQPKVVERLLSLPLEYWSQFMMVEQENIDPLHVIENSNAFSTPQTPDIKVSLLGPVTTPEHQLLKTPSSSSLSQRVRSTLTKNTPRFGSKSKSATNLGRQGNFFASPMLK

[7] = Trypanosoma cruzi growth suppression in host cells – NIH3T3 host cells, beta-gal luminescence, confirmation (AID 2044); type: functional, cell-based;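 note: intracellular parasites grown in NIH/3T3 mouse fibroblasts as host cells; luminescent beta-galactosidase reporter signal from transgenic T. cruzi replicating inside host cells; inhibitors lower the luminescence signal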
[8] = NIH3T3 cell viability loss – ATP luminescence, mouse fibroblasts, counter-screen, dose response (AID 2010); type: functional, cell-based; details: NIH3T3;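 note: cells exposed to compound for about 90 hours before reading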
[9] = biological target: T4, Ubiquitin-conjugating enzyme E2 N (Homo sapiens, UniProt P61088); type: functional;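 note: Dose-response confirmation in a TR-FRET assay detecting UBC13-driven polyubiquitin chain formation, inhibition measured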
T4 sequence (P61088 whole entry): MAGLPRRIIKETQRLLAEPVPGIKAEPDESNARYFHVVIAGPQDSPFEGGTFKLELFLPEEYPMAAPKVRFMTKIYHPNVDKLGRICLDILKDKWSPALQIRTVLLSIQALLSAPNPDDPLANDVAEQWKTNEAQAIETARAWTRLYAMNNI

[10] = HIV-1 AD8 envelope cell-cell fusion blockers – cherry-pick, dose response (AID 652062); type: functional, cell-based;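 note: luciferase signal from cell-cell fusion driven by HIV-1 clade B AD8 Env; potency is for inhibitors of fusion seen as a drop in luminescence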
Cytochrome P450 2D6 = Cytochrome P450 2D6 (Homo sapiens, UniProt P10635);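 note: CYP2D6 member of a cytochrome P450 panel assay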
Chain of Cytochrome P450 2D6 (P10635 whole entry): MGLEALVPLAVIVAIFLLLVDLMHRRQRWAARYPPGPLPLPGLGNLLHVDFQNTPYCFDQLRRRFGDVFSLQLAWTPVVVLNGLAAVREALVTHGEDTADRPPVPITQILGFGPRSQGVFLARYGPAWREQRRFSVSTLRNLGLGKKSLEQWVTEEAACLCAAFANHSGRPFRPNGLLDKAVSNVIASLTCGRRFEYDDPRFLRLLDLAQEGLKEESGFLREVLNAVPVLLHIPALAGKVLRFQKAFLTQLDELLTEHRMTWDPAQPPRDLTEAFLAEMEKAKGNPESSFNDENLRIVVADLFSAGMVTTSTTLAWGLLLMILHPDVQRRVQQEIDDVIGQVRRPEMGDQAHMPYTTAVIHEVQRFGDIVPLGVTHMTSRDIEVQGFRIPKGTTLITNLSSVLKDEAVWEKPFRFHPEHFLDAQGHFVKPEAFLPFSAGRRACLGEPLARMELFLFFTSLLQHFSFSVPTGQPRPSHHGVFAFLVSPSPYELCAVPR

Cytochrome P450 3A4 = Cytochrome P450 3A4 (Homo sapiens, UniProt P08684);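 note: CYP3A4 tested as one member of a cytochrome P450 panel screen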
Chain of Cytochrome P450 3A4 (P08684 whole entry): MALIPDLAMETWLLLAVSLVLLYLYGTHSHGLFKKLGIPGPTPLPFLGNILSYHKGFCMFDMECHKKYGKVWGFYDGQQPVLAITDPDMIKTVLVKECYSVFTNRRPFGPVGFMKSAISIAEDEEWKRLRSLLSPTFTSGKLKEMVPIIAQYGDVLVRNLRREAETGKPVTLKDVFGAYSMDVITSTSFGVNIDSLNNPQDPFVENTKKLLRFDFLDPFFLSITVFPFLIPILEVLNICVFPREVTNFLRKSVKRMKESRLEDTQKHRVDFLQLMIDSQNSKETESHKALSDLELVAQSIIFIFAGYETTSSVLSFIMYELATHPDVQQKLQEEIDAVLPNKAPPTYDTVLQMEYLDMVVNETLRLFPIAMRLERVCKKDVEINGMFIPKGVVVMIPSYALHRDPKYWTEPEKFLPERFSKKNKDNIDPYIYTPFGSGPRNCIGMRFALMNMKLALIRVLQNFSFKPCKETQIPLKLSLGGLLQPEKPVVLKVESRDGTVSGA

Chain of Cytochrome P450 2C9 (P11712 whole entry): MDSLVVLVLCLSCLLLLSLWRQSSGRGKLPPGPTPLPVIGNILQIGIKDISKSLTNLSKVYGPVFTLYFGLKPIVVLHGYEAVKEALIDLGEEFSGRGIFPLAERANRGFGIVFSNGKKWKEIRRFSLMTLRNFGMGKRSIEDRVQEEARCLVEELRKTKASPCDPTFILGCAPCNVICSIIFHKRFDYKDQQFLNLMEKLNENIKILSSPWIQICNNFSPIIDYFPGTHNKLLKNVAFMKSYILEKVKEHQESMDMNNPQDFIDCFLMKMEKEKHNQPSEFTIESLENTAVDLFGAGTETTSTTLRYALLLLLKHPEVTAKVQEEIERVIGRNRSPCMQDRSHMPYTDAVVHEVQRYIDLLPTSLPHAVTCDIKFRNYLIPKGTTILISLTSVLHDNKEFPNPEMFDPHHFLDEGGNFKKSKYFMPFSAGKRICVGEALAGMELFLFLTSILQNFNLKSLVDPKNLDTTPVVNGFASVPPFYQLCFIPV
Chain of Cytochrome P450 2C19 (P33261 whole entry): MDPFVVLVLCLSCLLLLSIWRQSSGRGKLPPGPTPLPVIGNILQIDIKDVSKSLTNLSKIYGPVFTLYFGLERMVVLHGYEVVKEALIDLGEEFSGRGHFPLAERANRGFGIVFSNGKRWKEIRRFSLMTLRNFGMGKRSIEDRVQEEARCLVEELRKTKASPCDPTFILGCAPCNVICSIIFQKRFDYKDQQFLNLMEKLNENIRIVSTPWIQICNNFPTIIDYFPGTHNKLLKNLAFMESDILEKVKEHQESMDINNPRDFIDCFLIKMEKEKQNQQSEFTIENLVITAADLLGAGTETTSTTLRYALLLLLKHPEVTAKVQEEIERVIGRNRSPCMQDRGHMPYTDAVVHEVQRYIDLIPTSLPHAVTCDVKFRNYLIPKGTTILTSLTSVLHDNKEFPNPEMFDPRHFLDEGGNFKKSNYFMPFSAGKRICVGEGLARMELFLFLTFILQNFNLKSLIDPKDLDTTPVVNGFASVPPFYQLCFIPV

## CCCCN(C)CCCNC(=O)C[S+]([O-])Cc1nc(-c2ccc(OC)c(OC)c2)oc1C (stereo unspecified)
Cytochrome P450 2C19
  AC50: inconclusive
Cytochrome P450 2C9
  AC50: inconclusive

## Cn1c(S)nnc1CSCc1ccc(Cl)c(Cl)c1
[1]
  AC50: 3.93 µM (active)

## COc1cc(OC)c2ccc(=O)oc2c1C(CC(=O)N1CCCC1)c1ccc(N(C)C)cc1 (stereo unspecified)
[1]
  AC50: 2.89 µM (active)

## O=C(c1ccc([N+](=O)[O-])o1)N1CCN(Cc2ccccc2)CC1
cells
  IC50: 0.55 µM (active)

## Brc1ccc(-c2ccc(CNCc3ccccn3)o2)cc1
cells
  IC50: 1.25 µM (active)

## CCN(C(=O)CN1CCN(c2ccccc2O)CC1)c1c(N)n(Cc2ccccc2)c(=O)[nH]c1=O
[1]
  AC50: 16.2 µM (active)

## O=C(Nc1cnn(Cc2ccc(F)cc2)c1)C(c1ccccc1)c1ccccc1
[2]
  EC50: 49.5 µM (active)
[3]
  EC50: 18.2 µM (active)
[4]
  IC50: 9.63 µM (not active)

## O=C(Nc1cccc([N+](=O)[O-])c1)c1[nH]ncc1Cl
[1]
  AC50: 0.847 µM (active)

## COc1ccc(CNc2nc3ccccc3n2C(C)C)c(O)c1
[1]
  AC50: 0.146 µM (active)

## Cc1cc(C(=O)NNc2ccc(F)cc2)no1
[5]
  AC50: 2.05 µM (active)
[1]
  AC50: 10.5 µM (active)

## Cc1ccccc1N=C(S)NCc1ccc2[nH]c3c(c2c1)CCCC3
Nonstructural protein 1
  IC50: > 100 µM (active)

## CCOC(=O)C1(Cc2cccc(OC)c2)CCN(Cc2cccc(OCC)c2O)CC1
[4]
  IC50: 8.3 µM (not active)

## O=c1c(-c2ccc(F)cc2)nc2cnc(N3CCOCC3)nc2n1C[C@H]1CCCO1
Cytochrome P450 2C19
  AC50: inconclusive
Cytochrome P450 2C9
  AC50: inconclusive

## NCCCNC(=O)Cn1c(=O)c2c3c(sc2n(Cc2ccccc2)c1=O)CCCC3
Nonstructural protein 1
  IC50: > 100 µM (active)

## CN(C)C(=O)c1ccc(-c2ccc3ncnc(N4CCC(C(=O)O)CC4)c3c2)cc1
Cytochrome P450 1A2
  AC50: 39.8 µM (inconclusive)
Cytochrome P450 2C9
  AC50: inconclusive

## COc1ccc(N2CCN(C(=O)NC3CCCCC3)CC2)cc1
[1]
  AC50: 5.03 µM (active)
[6]
  IC50: 137 µM (active)

## O=C(CSCc1c(F)cccc1Cl)NCC1CCCO1 (stereo unspecified)
Cytochrome P450 2C9
  AC50: inconclusive

## Cc1ccc(-c2nnc(COC(=O)c3cccs3)o2)cc1
cells
  IC50: 17.5 µM (active)

## O=C(c1ccc([N+](=O)[O-])cc1[N+](=O)[O-])N1CCc2ccccc21
[7]
  EC50: 0.7 µM (active)
[8]
  EC50: > 60 µM (not active)
cells
  IC50: 0.21 µM (active)

## CCN(CC)S(=O)(=O)c1ccc(C)c(NC(S)=NNC(=O)C2CC2)c1
[4]
  IC50: > 50 µM (not active)

## CN(C)CCCN(C(=O)c1ccc2c(c1)CCCC2)c1nc2ccc(Cl)cc2s1
[9]
  IC50: > 20 µM (inactive)
Nonstructural protein 1
  IC50: > 100 µM (active)

## COc1cc(C(=O)NCc2ccc3c(c2)cc(C)n3C)cc(OC)c1OC
[4]
  IC50: > 50 µM (not active)

## O=C(Nc1cccc(C(F)(F)F)c1)c1ccc(Cn2cc(Br)cn2)o1
[10]
  AC50: 29.6 µM (active)
Cytochrome P450 2D6
  AC50: 22.4 µM (inconclusive)

## COCCCN=C(S)NNC(=O)C1CC1c1ccc(C(C)(C)C)cc1 (stereo unspecified)
[4]
  IC50: > 50 µM (not active)

## Cn1cccc1CC(=O)N/N=C/c1ccc([N+](=O)[O-])cc1
[1]
  AC50: 6.99 µM (active)

## C/C(=N\NC(=O)c1ccc(Cl)cc1)c1ccc(Br)s1
[7]
  EC50: 1.91 µM (active)
Cytochrome P450 2C19; read-out: AC50
  AC50: 17.8 µM (inconclusive)
Cytochrome P450 3A4
  AC50: 14.1 µM (inconclusive)
Cytochrome P450 2C9
  AC50: inconclusive

## CC(C)(C)NC[C@H](O)COc1nsnc1N1CCOCC1 [TIMOLOL]
Cytochrome P450 2C9
  AC50: inactive
